Molecular target: T1, hYAK3 (Homo sapiens, UniProt O43781)
T1 construct: GST (N); His6 (C); made in house; host or cells: baculovirus expression system in Sf9 cells
T1 sequence (O43781 142-526): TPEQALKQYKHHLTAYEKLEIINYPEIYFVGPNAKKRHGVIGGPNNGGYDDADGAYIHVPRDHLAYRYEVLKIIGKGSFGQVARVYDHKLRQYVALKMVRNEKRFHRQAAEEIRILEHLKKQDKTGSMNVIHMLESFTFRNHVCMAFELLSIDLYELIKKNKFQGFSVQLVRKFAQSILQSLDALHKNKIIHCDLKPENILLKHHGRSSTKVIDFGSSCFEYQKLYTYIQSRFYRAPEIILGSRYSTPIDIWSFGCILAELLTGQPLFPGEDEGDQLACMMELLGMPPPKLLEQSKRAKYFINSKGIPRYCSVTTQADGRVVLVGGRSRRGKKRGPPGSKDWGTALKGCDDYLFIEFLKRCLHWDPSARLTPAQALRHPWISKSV
Assay: YAK3 Scintillation Proximity Assay using Ser164 of myelin basic protein as the phosphoacceptor (kinase assay of purified hYAK3)
Type: biochemical
Conditions: purified GST-hYak3-His6; 1 μM ATP; 4 μM Ser164 peptide; 2 hours at room temperature
Experimental: Substrate phosphorylation assays were carried out as follows:
YAK3 Scintillation Proximity Assays Using Ser164 of Myelin Basic Protein as the Phosphoacceptor
The source of Ser164 substrate peptide The biotinylated Ser164, S164A peptide(LGGRDSRAGS*PMARRKK-ahx-Biotin-Amide), sequence derived from the C-terminus of bovine myelin basic protein (MBP) with Ser162 substituted as Ala 162, was purchased from California Peptide Research Inc. (Napa, Calif.), and its purity was determined by HPLC. Phosphorylation occurs at position 164 (marked S* above). The calculated molecular mass of the peptide is 2166 dalton. Solid sample was dissolved at 10 mM in DMSO, aliquoted, and stored at −20 C until use. […]
Kinase assay of purified hYAK3: Assays were performed in 96 well (Costar, Catalog No.3789) or 384 well plates (Costar, Catalog No.3705). […] Compounds, titrated in DMSO, were evaluated at concentrations ranging from 50 μM to 0.2 nM. […]
The data for compound dose responses were plotted as % Inhibition, calculated with the data reduction formula 100*(1-[(U1-C2)/(C1-C2)]), versus concentration of compound, where U is the unknown value, C1 is the average control value obtained for DMSO, and C2 is the average control value obtained for 0.05M EDTA. […] The results for each compound were recorded as pIC50 calculated as follows: pIC50=−Log 10(K).

IC50: 1.26 nM
SMILES: O=C1N=C(Nc2c(Cl)cccc2Cl)S/C1=C\c1ccc2ncc(N3CCOCC3)nc2c1 [Example 1, (5Z)-2-[(2,6-Dichlorophenyl)amino]-5-{[3-(4-morpholinyl)-6-quinoxalinyl]methylidene}-1,3-thiazol-4(5H)-one]
